Experiment [1] concerns the target T1, Tyrosine-protein kinase ITK/TSK (Homo sapiens, UniProt Q08881).
T1 sequence (Q08881 whole entry): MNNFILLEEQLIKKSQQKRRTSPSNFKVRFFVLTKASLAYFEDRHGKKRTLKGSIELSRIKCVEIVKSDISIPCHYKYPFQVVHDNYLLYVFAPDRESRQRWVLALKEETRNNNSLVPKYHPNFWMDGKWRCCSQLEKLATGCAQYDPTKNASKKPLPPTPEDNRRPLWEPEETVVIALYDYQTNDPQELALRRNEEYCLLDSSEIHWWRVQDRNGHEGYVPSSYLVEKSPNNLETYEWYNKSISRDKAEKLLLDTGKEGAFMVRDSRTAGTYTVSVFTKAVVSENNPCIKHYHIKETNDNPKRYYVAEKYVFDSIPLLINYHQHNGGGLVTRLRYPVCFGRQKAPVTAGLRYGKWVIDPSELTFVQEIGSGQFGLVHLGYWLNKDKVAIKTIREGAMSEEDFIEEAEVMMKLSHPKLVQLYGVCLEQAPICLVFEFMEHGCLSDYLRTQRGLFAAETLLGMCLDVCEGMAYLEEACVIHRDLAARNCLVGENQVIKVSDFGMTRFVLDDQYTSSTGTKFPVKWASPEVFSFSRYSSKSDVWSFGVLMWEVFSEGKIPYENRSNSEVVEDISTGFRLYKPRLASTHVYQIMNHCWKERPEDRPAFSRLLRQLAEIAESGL
The experiment is described as follows: Inhibition of recombinant human FLAG-tagged ITK using biotinylated GST-SAM68 as substrate after 30 mins.

Experiment [2] addresses T2, Aurora kinase B (Homo sapiens, UniProt Q96GD4). The experiment is described as follows: Inhibition of Aurora-B (unknown origin) using 5FAM-PKAtide as substrate after 120 mins.
Experiment [3] deals with T3, Tyrosine-protein kinase Lck (Homo sapiens, UniProt P06239). Nature of the experiment: Inhibition of LCK (unknown origin) using tamra-p34cdc-derived peptide as substrate after 30 mins.
A further experiment has as its system PBMC. Nature of the experiment: Inhibition of cytostim-induced IFNgamma production in human PBMC treated 1 hr before cytostim stimulation measured after 18 hrs by MSD assay. In kind it is functional, cell-based.
Experiment [4] concerns the target T1, Tyrosine-protein kinase ITK/TSK. Nature of the experiment: Inhibition of ITK (unknown origin).
Experiment [5] concerns the target T3, Tyrosine-protein kinase Lck. Nature of the experiment: Inhibition of LCK (unknown origin).
The target in experiment [6] is T2, Aurora kinase B. The experiment is described as follows: Inhibition of Aurora-B (unknown origin).

T2 sequence (Q96GD4 whole entry): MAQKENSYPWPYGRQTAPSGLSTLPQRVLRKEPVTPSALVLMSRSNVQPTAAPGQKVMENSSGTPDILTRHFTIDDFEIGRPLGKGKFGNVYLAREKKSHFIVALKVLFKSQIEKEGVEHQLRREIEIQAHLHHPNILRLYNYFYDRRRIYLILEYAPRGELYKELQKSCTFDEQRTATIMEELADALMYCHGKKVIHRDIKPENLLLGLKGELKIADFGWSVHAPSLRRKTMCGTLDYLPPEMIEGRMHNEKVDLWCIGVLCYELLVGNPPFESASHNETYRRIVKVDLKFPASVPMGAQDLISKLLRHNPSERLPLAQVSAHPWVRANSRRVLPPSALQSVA
T3 sequence (P06239 whole entry): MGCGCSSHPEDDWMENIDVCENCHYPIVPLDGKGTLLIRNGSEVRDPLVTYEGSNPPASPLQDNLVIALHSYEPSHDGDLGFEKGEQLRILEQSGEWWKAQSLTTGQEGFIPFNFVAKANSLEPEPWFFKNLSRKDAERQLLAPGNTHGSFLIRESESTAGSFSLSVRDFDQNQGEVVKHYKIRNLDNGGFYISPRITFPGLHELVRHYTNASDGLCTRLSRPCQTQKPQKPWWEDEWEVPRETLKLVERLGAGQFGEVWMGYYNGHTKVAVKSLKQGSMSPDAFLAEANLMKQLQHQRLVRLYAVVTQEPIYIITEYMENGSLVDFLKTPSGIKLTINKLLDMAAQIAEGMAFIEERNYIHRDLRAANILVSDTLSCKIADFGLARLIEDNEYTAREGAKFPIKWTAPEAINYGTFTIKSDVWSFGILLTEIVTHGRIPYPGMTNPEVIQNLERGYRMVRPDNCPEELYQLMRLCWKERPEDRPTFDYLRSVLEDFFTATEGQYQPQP

Take `Cc1csc(Nc2cc(Cc3ccccc3)nc(N[C@H]3CC[C@H](O)CC3)n2)n1`: the Ki (in general, a dissociation constant, usually derived from enzyme kinetics or from competition with a known ligand) in experiment [1] is 158 nM; at Aurora kinase B [2] it was more than 20000 nM; in experiment [3], 3160 nM.
The like results for `O[C@H]1CC[C@H](Nc2nc(Cc3ccccc3)cc(Nc3nc4cccnc4s3)n2)CC1` were, in that order, 0.251 nM, 100 nM and 100 nM.
For `COc1ccc2nc(Nc3cc(Cc4ccccc4)nc(N[C@H]4CC[C@H](O)CC4)n3)sc2c1`, the figures for the Ki (in experiment [1]; on Aurora kinase B [2]; in experiment [3]) were 3.98 nM, 501 nM and 126 nM, respectively. Besides, half-maximal inhibition in the experiment on PBMC (IC50) required 25.1 nM.
With `Cc1cc2nc(Nc3cc(Cc4ccccc4)nc(N[C@H]4CC[C@H](O)CC4)n3)sc2cc1C`, the values for the Ki (in experiment [1]; at Aurora kinase B [2]; in experiment [3]) were more than 10000 nM, 20000 nM and more than 25100 nM, respectively.
The like results for `N#Cc1ccc2nc(Nc3cc(Cc4ccccc4)nc(N[C@H]4CC[C@H](O)CC4)n3)sc2c1` were, in that order, 0.251 nM, 79.4 nM and 63.1 nM.
Turning to `CS(=O)(=O)N1CCOC(CNc2nc(Cc3ccccc3)cc(Nc3cc(-c4ccco4)n[nH]3)n2)C1` (configuration not stated), the Ki in experiment [4] is 6.31 nM; in experiment [5] it was 501 nM; on Aurora kinase B [6] it was 316 nM.
With `COc1ccc2nc(Nc3cc(Cc4ccccc4)nc(N[C@H]4CC[C@H](O)CC4)n3)sc2n1`, the Ki was 0.2 nM in experiment [1], 316 nM at Aurora kinase B [2] and 79.4 nM in experiment [3].
Turning to `NC(=O)C1CCN1c1nc(Cc2ccccc2)cc(Nc2cc(C3CCC3)n[nH]2)n1` (configuration not stated), the Ki was 15.8 nM in experiment [4], 501 nM in experiment [5] and 79.4 nM on Aurora kinase B [6].
`Cc1cnc(Nc2cc(Cc3ccccc3)nc(N[C@H]3CC[C@H](O)CC3)n2)s1`: the values for the Ki (in experiment [1]; on Aurora kinase B [2]; in experiment [3]) were 2 nM, 0.501 nM and 20 nM, respectively.
For `COc1ccc2nc(Nc3cc(C(F)(F)c4ccc(F)cc4)nc(N[C@H]4CC[C@H](O)CC4)n3)sc2n1`, in that order: 15.8 nM, more than 20000 nM and 200 nM.
Turning to `O[C@H]1CC[C@H](Nc2nc(Cc3ccccc3)cc(Nc3nc4ccc(Cl)cc4s3)n2)CC1`, the Ki is 0.316 nM in experiment [1], 251 nM at Aurora kinase B [2] and 79.4 nM in experiment [3].
The like results for `COc1ccc2nc(Nc3cc(C(F)(F)c4ccc(F)cc4)nc(N4CCC[C@H]4C(N)=O)n3)sc2c1` were, in that order, 3980 nM, more than 20000 nM and 2510 nM.
For `O[C@H]1CC[C@H](Nc2nc(Nc3ncc(Cc4ccccc4)s3)cc(C(F)(F)c3ccc(F)cc3)n2)CC1`, in that order: 63.1 nM, 5.01 nM and 100 nM.
With `O[C@H]1CC[C@H](Nc2nc(Nc3n[nH]c4ccccc34)cc(C(F)(F)c3ccc(F)cc3)n2)CC1`, the Ki in experiment [1] is 794 nM; at Aurora kinase B [2] it was 631 nM; in experiment [3], 15800 nM.
The like results for `O[C@H]1CC[C@H](Nc2nc(Nc3cc4ccccc4cn3)cc(C(F)(F)c3ccc(F)cc3)n2)CC1` were, in that order, 6.31 nM, 79.4 nM and 100 nM.
For `O[C@H]1CC[C@H](Nc2nc(Nc3ccc(Oc4ccc(F)cc4)cn3)cc(C(F)(F)c3ccc(F)cc3)n2)CC1`, in that order: 501 nM, 5010 nM and 501 nM.
For `NC(=O)[C@@H]1CCCN1c1nc(Nc2ncc(Cc3ccccc3)s2)cc(C(F)(F)c2ccc(F)cc2)n1`, in that order: more than 10000 nM, 3160 nM and 316 nM.
Take `O[C@H]1CC[C@H](Nc2nc(Cc3ccccc3)cc(Nc3nc4ccccc4s3)n2)CC1`: the Ki in experiment [1] was 1 nM; on Aurora kinase B [2], 398 nM; in experiment [3], 316 nM.
The like results for `O[C@H]1CC[C@H](Nc2nc(Cc3ccccc3)cc(Nc3nc4ccc(C(F)(F)F)cc4s3)n2)CC1` were, in that order, 12.6 nM, 251 nM and 50.1 nM.
Take `COc1ccc2nc(Nc3cc(C(F)(F)c4ccc(F)cc4)nc(N[C@H]4CC[C@H](O)CC4)n3)sc2c1`: the results for the Ki (in experiment [1]; on Aurora kinase B [2]; in experiment [3]) were 20 nM, 2510 nM and 251 nM, respectively.
For `Cc1ccc2nc(Nc3cc(Cc4ccccc4)nc(N[C@H]4CC[C@H](O)CC4)n3)sc2c1`, in that order: 0.398 nM, 316 nM and 251 nM.
For `CCc1ccc2nc(Nc3cc(Cc4ccccc4)nc(N[C@H]4CC[C@H](O)CC4)n3)sc2n1`, in that order: 1.58 nM, 63.1 nM and 100 nM.

The record behind these values is ChEMBL document CHEMBL2440060, “Identification of a Novel and Selective Series of Itk Inhibitors via a Template-Hopping Strategy” (ACS Med Chem Lett, 2013).
